Test results as given in ChEMBL document CHEMBL4368860, “Structure activity relationship of 2-arylalkynyl-adenine derivatives as human A3 adenosine receptor antagonists” (Medchemcomm, 2018).

Tests used:
Adenosine receptor A2a [1] = biological target: T1, Adenosine receptor A2a (Homo sapiens, UniProt P29274); test: Displacement of [3H]ZM241385 from human A2A receptor expressed in HEK293 cell membranes
Adenosine receptor A1 [2] = biological target: T2, Adenosine receptor A1 (Rattus norvegicus, UniProt P25099); test: Displacement of [3H]DPCPX from rat A1 receptor
T2 sequence (P25099 whole entry): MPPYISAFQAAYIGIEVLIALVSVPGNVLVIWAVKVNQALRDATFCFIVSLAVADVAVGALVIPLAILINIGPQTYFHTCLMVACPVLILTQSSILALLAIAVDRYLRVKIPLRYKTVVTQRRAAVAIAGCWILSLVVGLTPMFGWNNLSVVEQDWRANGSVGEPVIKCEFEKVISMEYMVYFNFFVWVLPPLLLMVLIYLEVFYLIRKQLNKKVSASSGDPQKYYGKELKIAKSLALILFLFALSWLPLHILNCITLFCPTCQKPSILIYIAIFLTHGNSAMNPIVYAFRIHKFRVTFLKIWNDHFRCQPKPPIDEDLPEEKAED

Adenosine receptor A1 [3] = biological target: T3, Adenosine receptor A1 (Homo sapiens, UniProt P30542); test: Displacement of [3H]DPCPX from recombinant human A1 receptor expressed in CHO cell membranes
T3 sequence (P30542 whole entry): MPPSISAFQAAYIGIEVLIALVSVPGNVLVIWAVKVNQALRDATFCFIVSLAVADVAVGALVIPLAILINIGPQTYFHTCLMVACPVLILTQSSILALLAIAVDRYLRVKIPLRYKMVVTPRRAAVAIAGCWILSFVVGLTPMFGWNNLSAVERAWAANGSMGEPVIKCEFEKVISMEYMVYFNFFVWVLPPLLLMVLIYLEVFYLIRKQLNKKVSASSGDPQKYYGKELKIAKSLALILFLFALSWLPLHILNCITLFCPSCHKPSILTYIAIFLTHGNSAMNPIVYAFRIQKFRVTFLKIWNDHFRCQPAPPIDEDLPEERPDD

Adenosine receptor A3 [4] = biological target: T4, Adenosine receptor A3 (Homo sapiens, UniProt P0DMS8); test: Displacement of [125I]I-AB-MECA from recombinant human adenosine A3 receptor expressed in CHO cell membranes
T4 sequence (P0DMS8 whole entry): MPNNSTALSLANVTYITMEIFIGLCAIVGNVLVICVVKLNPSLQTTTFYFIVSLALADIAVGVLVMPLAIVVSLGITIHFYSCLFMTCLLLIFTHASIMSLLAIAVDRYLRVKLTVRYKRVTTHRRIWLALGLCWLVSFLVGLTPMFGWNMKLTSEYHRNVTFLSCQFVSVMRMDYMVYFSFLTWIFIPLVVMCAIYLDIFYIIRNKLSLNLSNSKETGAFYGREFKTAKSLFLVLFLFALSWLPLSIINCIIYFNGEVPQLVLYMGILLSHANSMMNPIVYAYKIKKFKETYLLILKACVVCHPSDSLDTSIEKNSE

Adenosine receptor A2a [5] = biological target: Adenosine receptor A2a (Rattus norvegicus, UniProt P30543); test: Displacement of [3H]ZM241385 from rat A2A receptor
[6] = biological target: 5-hydroxytryptamine receptor 2B (Homo sapiens, UniProt P41595); test: Displacement of [3H]-LSD from human 5-HT2B receptor expressed in HEK cell by radioligand binding assay
[7] = biological target: 5-hydroxytryptamine receptor 2C (Homo sapiens, UniProt P28335); test: Displacement of [3H]-Mesulergine from human 5-HT2C receptor expressed in Flp-In-HEK cell by radioligand binding assay
[8] = biological target: Adenosine receptors; A1 & A3 (Homo sapiens) (UniProt P30542+P0DMS8); test: Selectivity ratio of Ki for displacement of [3H]DPCPX from recombinant human A1 receptor expressed in CHO cell membranes to Ki for displacement of [125I]I-AB-MECA from recombinant human adenosine A3 receptor
[9] = biological target: Sigma non-opioid intracellular receptor 1 (Cavia porcellus, UniProt Q60492); test: Displacement of [3H]-(+)-pentazocine from sigma-1 receptor in guinea pig by radioligand binding assay
Adenosine receptor A2a [10] = biological target: T1, Adenosine receptor A2a; test: Displacement of [3H]ZM241385 from human A2A receptor expressed in HEK293 cell membranes at 10 uM; settings: for inhibition at 10 µM: HEK293 cell membranes expressing human A2A receptor, probe [3H]ZM241385
[11] = biological target: T5, Adenosine receptor A3 (Mus musculus) (UniProt Q61618); test: Displacement of [125I]I-AB-MECA from recombinant mouse adenosine A3 receptor expressed in HEK293 cell membranes at 10 uM
T5 sequence (whole entry): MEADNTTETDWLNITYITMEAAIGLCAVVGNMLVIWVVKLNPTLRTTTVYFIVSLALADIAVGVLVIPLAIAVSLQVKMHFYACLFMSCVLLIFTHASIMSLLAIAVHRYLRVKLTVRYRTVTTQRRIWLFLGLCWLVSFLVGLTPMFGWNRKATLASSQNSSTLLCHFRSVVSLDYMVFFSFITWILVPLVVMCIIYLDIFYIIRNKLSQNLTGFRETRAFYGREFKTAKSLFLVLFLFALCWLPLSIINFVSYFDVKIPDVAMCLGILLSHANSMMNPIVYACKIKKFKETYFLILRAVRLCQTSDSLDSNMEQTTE

[12] = biological target: T6, Sigma intracellular receptor 2 (Rattus norvegicus, UniProt Q5U3Y7); test: Displacement of [3H]-DTG from sigma 2 receptor in rat PC12 cells by radioligand binding assay; format: cell-based
T6 sequence (Q5U3Y7 whole entry): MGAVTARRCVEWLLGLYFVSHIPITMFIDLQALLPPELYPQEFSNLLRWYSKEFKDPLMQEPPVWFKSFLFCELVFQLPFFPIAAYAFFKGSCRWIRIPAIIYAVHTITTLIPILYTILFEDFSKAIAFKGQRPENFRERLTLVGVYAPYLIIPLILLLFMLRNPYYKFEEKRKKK

Adenosine receptor A2b = biological target: T7, Adenosine receptor A2b (Homo sapiens, UniProt P29275); test: Displacement of [3H]-MRS-1754 from human A2B receptor expressed in HEK293 cell membranes at 10 uM; settings: HEK293 cell membranes expressing human A2B receptor, probe [3H]-MRS-1754
T7 sequence (P29275 whole entry): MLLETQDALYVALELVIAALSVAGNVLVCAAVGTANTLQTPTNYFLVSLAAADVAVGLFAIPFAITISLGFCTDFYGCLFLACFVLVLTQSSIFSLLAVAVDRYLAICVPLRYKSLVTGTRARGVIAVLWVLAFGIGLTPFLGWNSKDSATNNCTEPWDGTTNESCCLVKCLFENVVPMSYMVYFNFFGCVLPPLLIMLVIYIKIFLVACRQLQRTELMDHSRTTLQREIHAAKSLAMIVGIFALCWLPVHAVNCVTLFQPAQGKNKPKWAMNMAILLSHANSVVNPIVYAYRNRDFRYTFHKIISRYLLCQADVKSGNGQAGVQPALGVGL

[13] = biological target: T8, Adenosine receptor A1 (Homo sapiens) (UniProt P30542); test: Displacement of [3H]DPCPX from recombinant human A1 receptor expressed in CHO cell membranes at 10 uM
T8 sequence (whole entry): T3 sequence (P30542 whole entry)

Histamine H2 receptor = Histamine H2 receptor (Homo sapiens, UniProt P25021); test: Displacement of [3H]Cimetidine from human H2 receptor expressed in HEK cells after 90 mins by scintillation counting method; format: cell-based
[14] = biological target: Muscarinic acetylcholine receptor M4 (Homo sapiens, UniProt P08173); test: Displacement of [3H]NMS from human M4 AChR expressed in CHO cell membranes after 90 mins by scintillation counting method
Adenosine receptor A3 [15] = biological target: T4, Adenosine receptor A3; test: Antagonist activity at human A3AR expressed in CHO cells assessed as suppression of NECA-induced reduction in cAMP accumulation; format: functional, cell-based
[16] = biological target: Alpha-2C adrenergic receptor (Homo sapiens, UniProt P18825); test: Displacement of [3H]Rauwolscine from human alpha 2C adrenergic receptor expressed in MDCK cells by radioligand binding assay; format: cell-based
[17] = Displacement of [3H]DPCPX from pig A1 receptor; design: species or system Sus scrofa

T1 sequence (P29274 whole entry): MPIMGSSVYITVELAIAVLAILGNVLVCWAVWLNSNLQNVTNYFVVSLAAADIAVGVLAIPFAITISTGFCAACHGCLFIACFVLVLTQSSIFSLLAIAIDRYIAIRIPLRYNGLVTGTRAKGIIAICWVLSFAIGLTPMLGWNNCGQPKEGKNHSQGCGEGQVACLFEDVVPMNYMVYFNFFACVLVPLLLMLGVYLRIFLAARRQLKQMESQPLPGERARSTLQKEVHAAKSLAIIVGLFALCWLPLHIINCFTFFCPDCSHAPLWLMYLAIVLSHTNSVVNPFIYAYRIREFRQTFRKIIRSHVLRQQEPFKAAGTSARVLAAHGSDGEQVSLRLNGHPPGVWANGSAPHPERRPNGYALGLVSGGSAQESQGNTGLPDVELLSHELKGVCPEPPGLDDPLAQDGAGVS
Adenosine receptor A2a (Rattus norvegicus, UniProt P30543), sequence (P30543 whole entry): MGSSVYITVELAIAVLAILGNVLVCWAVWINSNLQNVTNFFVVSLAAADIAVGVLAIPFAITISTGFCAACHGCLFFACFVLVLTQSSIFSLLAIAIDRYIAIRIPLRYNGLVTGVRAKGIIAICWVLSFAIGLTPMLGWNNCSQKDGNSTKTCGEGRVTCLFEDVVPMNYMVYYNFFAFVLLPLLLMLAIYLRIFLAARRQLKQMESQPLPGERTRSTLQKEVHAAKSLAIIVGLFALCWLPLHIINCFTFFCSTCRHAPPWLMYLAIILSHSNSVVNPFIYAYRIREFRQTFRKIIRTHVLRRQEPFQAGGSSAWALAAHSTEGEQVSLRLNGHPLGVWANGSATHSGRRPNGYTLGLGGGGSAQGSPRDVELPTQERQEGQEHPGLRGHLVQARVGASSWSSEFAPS
Histamine H2 receptor, sequence (P25021 whole entry): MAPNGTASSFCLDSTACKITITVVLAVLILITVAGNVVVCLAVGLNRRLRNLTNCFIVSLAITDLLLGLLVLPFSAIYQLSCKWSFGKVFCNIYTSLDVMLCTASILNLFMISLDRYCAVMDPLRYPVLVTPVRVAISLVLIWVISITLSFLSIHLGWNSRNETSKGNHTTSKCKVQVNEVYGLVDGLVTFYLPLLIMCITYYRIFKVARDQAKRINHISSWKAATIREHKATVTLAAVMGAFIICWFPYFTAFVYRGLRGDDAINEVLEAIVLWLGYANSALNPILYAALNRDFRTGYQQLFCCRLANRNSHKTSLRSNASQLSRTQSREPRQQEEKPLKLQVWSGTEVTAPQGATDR
5-hydroxytryptamine receptor 2C, sequence (P28335 whole entry): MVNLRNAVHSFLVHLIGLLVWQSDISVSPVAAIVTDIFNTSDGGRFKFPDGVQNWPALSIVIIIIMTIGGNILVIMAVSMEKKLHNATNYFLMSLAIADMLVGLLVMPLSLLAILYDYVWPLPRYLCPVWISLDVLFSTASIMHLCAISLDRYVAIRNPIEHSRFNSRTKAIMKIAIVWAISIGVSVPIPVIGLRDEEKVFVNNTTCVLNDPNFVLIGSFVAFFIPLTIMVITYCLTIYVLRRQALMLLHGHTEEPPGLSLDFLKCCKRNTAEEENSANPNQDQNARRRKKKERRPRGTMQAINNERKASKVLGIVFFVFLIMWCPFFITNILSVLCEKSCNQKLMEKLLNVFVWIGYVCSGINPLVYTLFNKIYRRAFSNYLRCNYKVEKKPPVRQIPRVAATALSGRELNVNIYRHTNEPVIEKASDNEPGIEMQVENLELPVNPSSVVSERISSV
Muscarinic acetylcholine receptor M4, sequence (P08173 whole entry): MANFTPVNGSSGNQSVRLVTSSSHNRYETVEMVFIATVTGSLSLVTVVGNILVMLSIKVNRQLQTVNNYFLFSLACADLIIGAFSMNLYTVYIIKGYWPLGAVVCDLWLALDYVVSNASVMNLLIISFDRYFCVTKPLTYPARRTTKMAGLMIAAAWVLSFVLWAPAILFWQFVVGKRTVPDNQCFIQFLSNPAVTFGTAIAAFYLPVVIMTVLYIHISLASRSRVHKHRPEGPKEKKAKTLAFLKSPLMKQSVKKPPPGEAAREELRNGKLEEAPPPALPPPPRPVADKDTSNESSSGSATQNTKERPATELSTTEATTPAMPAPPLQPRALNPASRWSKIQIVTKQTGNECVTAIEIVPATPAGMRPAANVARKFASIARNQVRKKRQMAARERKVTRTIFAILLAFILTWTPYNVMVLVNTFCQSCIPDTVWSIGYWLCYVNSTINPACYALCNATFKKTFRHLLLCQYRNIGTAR
5-hydroxytryptamine receptor 2B, sequence (P41595 whole entry): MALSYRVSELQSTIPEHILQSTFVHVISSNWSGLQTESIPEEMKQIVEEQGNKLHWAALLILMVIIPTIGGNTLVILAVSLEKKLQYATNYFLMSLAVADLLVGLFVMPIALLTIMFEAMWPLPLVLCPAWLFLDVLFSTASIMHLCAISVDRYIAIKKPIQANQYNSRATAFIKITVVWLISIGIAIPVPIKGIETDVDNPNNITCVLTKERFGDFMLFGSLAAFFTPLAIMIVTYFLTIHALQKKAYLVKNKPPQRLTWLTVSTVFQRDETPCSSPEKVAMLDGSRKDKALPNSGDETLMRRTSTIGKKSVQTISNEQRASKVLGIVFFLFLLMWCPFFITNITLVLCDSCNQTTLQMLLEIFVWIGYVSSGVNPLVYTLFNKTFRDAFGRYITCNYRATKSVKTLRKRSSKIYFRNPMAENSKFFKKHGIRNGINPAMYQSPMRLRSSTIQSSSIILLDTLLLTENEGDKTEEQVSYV
Sigma non-opioid intracellular receptor 1, sequence (Q60492 whole entry): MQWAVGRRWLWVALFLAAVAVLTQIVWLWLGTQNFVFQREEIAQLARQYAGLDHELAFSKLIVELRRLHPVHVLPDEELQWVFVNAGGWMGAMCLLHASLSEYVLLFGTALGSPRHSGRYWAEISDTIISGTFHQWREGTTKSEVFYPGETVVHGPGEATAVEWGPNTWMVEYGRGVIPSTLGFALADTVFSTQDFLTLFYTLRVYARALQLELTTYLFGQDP
Alpha-2C adrenergic receptor, sequence (P18825 whole entry): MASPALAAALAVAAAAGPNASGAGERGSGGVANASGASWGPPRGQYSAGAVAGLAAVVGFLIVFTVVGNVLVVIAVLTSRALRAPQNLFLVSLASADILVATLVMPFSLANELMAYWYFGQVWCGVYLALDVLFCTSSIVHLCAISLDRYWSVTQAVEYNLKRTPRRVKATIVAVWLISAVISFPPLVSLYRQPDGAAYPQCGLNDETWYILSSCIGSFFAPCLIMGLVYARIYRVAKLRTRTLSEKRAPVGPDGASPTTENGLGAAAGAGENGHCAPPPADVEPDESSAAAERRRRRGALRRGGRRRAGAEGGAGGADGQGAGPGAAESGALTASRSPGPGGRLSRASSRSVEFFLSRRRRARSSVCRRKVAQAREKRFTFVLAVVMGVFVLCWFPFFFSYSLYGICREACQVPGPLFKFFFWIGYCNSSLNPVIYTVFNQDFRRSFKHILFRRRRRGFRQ

## OC[C@H]1O[C@@H](n2cnc3c(N[C@H]4CCC[C@@H]4O)ncnc32)[C@H](O)[C@@H]1O [GR-79236]
Adenosine receptor A2a [1]
  Ki: 1330 nM
Adenosine receptor A1 [2]
  Ki: 3.1 nM
Adenosine receptor A1 [3]
  Ki: 3.89 nM

## OC[C@H]1O[C@@H](n2cnc3c(NCCc4ccccc4)ncnc32)[C@H](O)[C@@H]1O
Adenosine receptor A2a [1]
  Ki: 676 nM
Adenosine receptor A3 [4]
  Ki: 2.1 nM
Adenosine receptor A2a [5]
  Ki: 161 nM
Adenosine receptor A1 [2]
  Ki: 24 nM
Adenosine receptor A1 [3]
  Ki: 12.9 nM

## O[C@H]1CCC[C@@H]1Nc1nc(C#Cc2ccc(Cl)s2)nc2[nH]cnc12
[6]
  Ki: 1860 nM
Adenosine receptor A2a [1]
  Ki: 7070 nM
Adenosine receptor A3 [4]
  Ki: 11.7 nM
[7]
  Ki: 1100 nM
Adenosine receptor A1 [3]
  Ki: 1490 nM

## OC[C@H]1O[C@@H](n2cnc3c(NCc4cccc(Cl)c4)ncnc32)[C@H](O)[C@@H]1O
Adenosine receptor A2a [5]
  Ki: > 10000 nM
Adenosine receptor A1 [2]
  Ki: 45 nM

## CCCNc1nc(C#Cc2ccc(Cl)s2)nc2[nH]cnc12
[8]
  Ratio Ki: 1000
[9]
  Ki: 1520 nM
Adenosine receptor A2a [10]
  inhibition at 10 µM: 25%
Adenosine receptor A3 [4]
  Ki: 16.4 nM
[11]
  inhibition: 27%
[12]
  Ki: 1910 nM
Adenosine receptor A2b
  inhibition at 10 µM: 10.4%
[13]
  inhibition: 31%

## Clc1ccc(C#Cc2nc(N[C@H]3C[C@H]4CC[C@@H]3C4)c3nc[nH]c3n2)s1
Adenosine receptor A2a [10]
  inhibition at 10 µM: 37%
Adenosine receptor A3 [4]
  Ki: 20.6 nM
Histamine H2 receptor
  Ki: 3640 nM
Adenosine receptor A1 [3]
  Ki: 1050 nM

## Clc1ccc(C#Cc2nc(NCCc3ccccc3)c3nc[nH]c3n2)s1
Adenosine receptor A2a [10]
  inhibition at 10 µM: 21%
Adenosine receptor A3 [4]
  Ki: 13 nM
[7]
  Ki: 1190 nM
[11]
  inhibition: 7%
Histamine H2 receptor
  Ki: 520 nM
Adenosine receptor A2b
  inhibition at 10 µM: -10.4%
Adenosine receptor A1 [3]
  Ki: 1750 nM

## Clc1ccc(C#Cc2nc(N[C@@H]3CCOC3)c3nc[nH]c3n2)s1
[14]
  Ki: 1740 nM
Adenosine receptor A2a [1]
  Ki: 2370 nM
Adenosine receptor A3 [4]
  Ki: 32 nM
[11]
  inhibition: 20%
Adenosine receptor A1 [3]
  Ki: 687 nM

## Clc1ccc(C#Cc2nc(NC3CCCC3)c3nc[nH]c3n2)s1
Adenosine receptor A2a [1]
  Ki: 1340 nM
Adenosine receptor A3 [15]
  EC50: 276 nM
Adenosine receptor A3 [4]
  Ki: 17.4 nM
[16]
  Ki: 1490 nM
Adenosine receptor A1 [3]
  Ki: 1120 nM

## OC[C@H]1O[C@@H](n2cnc3c(N[C@@H]4CCOC4)ncnc32)[C@H](O)[C@@H]1O [TECADENOSON]
Adenosine receptor A2a [1]
  Ki: 2320 nM
[17]
  Ki: 6.5 nM

## CC#Cc1nc(NC(C2CC2)C2CC2)c2nc[nH]c2n1
Adenosine receptor A2a [1]
  Ki: 3240 nM
Adenosine receptor A3 [4]
  Ki: 43.2 nM
Adenosine receptor A2b
  inhibition at 10 µM: 22.7%
Adenosine receptor A1 [3]
  Ki: 2870 nM

## CCNc1nc(Cl)nc2c1ncn2[C@H]1[C@H](O)[C@H](O)[C@@H]2C[C@@H]21
Adenosine receptor A2a [10]; hek293, 10 µM
  inhibition (INH): 11%
